Data from the NIST ThermoML archive (doi:10.1021/je100381g).
± gives the expanded uncertainty stated by the source.

Settings: Fluid (supercritical or subcritical phases)

N#N [nitrogen]
Settings	mass density [kg/m3]
265 K, 967 kPa	12.355 ± 0.001
265 K, 1937 kPa	24.865 ± 0.002
265 K, 3929 kPa	50.84 ± 0.002
265 K, 5996 kPa	77.972 ± 0.003
265 K, 7985 kPa	104.063 ± 0.004
265 K, 9835 kPa	128.039 ± 0.004
265 K, 15014 kPa	192.346 ± 0.006
265 K, 20022 kPa	248.359 ± 0.008
265 K, 25019 kPa	297.183 ± 0.009
265 K, 30006 kPa	339.165 ± 0.011
265 K, 35119 kPa	376.198 ± 0.012
265 K, 50041 kPa	459.104 ± 0.014
265 K, 74887 kPa	549.76 ± 0.017
265 K, 100559 kPa	613.291 ± 0.019
293 K, 965 kPa	11.119 ± 0.001
293 K, 1933 kPa	22.306 ± 0.002
293 K, 3923 kPa	45.361 ± 0.002
293 K, 5988 kPa	69.244 ± 0.003
293 K, 7971 kPa	91.982 ± 0.003
293 K, 9822 kPa	112.91 ± 0.004
293 K, 14872 kPa	167.663 ± 0.006
293 K, 19976 kPa	218.428 ± 0.007
293 K, 24948 kPa	262.722 ± 0.008
293 K, 29965 kPa	302.337 ± 0.01
293 K, 34993 kPa	337.389 ± 0.011
293 K, 39916 kPa	367.801 ± 0.011
293 K, 50130 kPa	421 ± 0.013
293 K, 74957 kPa	513.932 ± 0.016
293 K, 99903 kPa	578.472 ± 0.018
293 K, 125585 kPa	628.863 ± 0.019
293 K, 150976 kPa	668.88 ± 0.02
298.15 K, 10005 kPa	112.564 ± 0.004
298.15 K, 30026 kPa	296.94 ± 0.009
298.15 K, 49844 kPa	413.221 ± 0.013
298.15 K, 74988 kPa	507.852 ± 0.016
298.15 K, 100175 kPa	573.318 ± 0.018
298.15 K, 124825 kPa	622.069 ± 0.019
298.15 K, 151239 kPa	664.101 ± 0.02
350 K, 2974 kPa	28.486 ± 0.002
350 K, 4917 kPa	46.878 ± 0.002
350 K, 5971 kPa	56.772 ± 0.002
350 K, 7481 kPa	70.762 ± 0.003
350 K, 9976 kPa	93.531 ± 0.003
350 K, 13786 kPa	127.029 ± 0.004
350 K, 17230 kPa	155.891 ± 0.005
350 K, 20677 kPa	183.287 ± 0.006
350 K, 24132 kPa	209.197 ± 0.007
350 K, 27582 kPa	233.51 ± 0.008
350 K, 29848 kPa	248.687 ± 0.008
350 K, 34691 kPa	279.018 ± 0.009
350 K, 49978 kPa	358.872 ± 0.011
350 K, 74999 kPa	452.98 ± 0.014
350 K, 99994 kPa	520.331 ± 0.016
350 K, 124395 kPa	571.157 ± 0.018
350 K, 150364 kPa	614.997 ± 0.019
400 K, 1004 kPa	8.432 ± 0.001
400 K, 1999 kPa	16.747 ± 0.002
400 K, 2999 kPa	25.04 ± 0.002
400 K, 4000 kPa	33.281 ± 0.002
400 K, 5001 kPa	41.463 ± 0.002
400 K, 7000 kPa	57.573 ± 0.002
400 K, 8004 kPa	65.564 ± 0.003
400 K, 10000 kPa	81.202 ± 0.003
400 K, 14997 kPa	118.841 ± 0.004
400 K, 19991 kPa	154.143 ± 0.005
400 K, 24998 kPa	187.116 ± 0.006
400 K, 29991 kPa	217.621 ± 0.007
400 K, 35015 kPa	246.029 ± 0.008
400 K, 40004 kPa	272.126 ± 0.009
400 K, 49964 kPa	318.659 ± 0.01
400 K, 59948 kPa	358.969 ± 0.011
400 K, 69931 kPa	394.143 ± 0.012
400 K, 79958 kPa	425.322 ± 0.013
400 K, 89963 kPa	453.061 ± 0.014
400 K, 99951 kPa	477.982 ± 0.015
400 K, 110031 kPa	500.804 ± 0.015
400 K, 120573 kPa	522.585 ± 0.016
